Measured values: US8846761B2, “Method for treating pancreatitis” (Michigan Life Therapeutics, LLC, priority 2010, dated 2014)
Read-outs that look alike come from different tables or passages of the source.

Assays:
[1] = tested on: patients having TG levels >500 mg/dL; test: Randomized, double-blind, placebo-controlled study of gemcabene, subset of patients entering with TG >500 mg/dL; type: in vivo, human; conditions: for ApoA-I average % increase / ApoB average % decrease / ApoC-III average % decrease / HDL-C average % increase / VLDL-C average % decrease / hs-CRP average % decrease / Triglycerides average % decrease: patients TG >500 mg/dL; for Triglycerides average % decrease: once daily for 12 weeks, serum, change from baseline
Protocol: A randomized, double-blind, placebo-controlled study was conducted to evaluate the efficacy and tolerability of gemcabene in patients with HDL cholesterol levels <35 mg/dL. Patients were stratified based on whether mean serum triglyceride (TG) levels were <200 mg/dL or ≧200 mg/dL. Within each TG stratum, patients were randomized to receive either 150, 300, 600 or 900 mg of gemcabene, or placebo, once daily for 12 weeks.
Patients were evaluated for percent change from baseline levels of serum HDL cholesterol, serum LDL cholesterol, TG, apolipoproteins A-I, A-II, B, C-III, and E, hs CRP and non-HDL cholesterol levels. Blood samples were measured at screening, randomization and at −8, −4, −2 weeks, baseline, and 2, 4, and 12 weeks after the start of study medication. In addition, HDL-C, LDL-C and TG levels were measured at 2 and 4 weeks before starting study medication. Bays H. E. et al. Am J Cardiol (2003) vol.
When the data were examined for the subset of patients entering the study having TG levels greater than 500 mg/dL, an unexpectedly large decrease in TG levels for those patients treated with gemcabene was seen as compared with the broader group of patients having triglyceride levels ≧200 mg/dL. Twenty-seven patients having TG levels >500 mg/dL were evaluated in the study.
FIGS. 2a-e, 3a-e, 4a-e, 5a-e, 6a-e, 7a-e and 8a-e are graphs illustrating the serum levels of TG, HDL-C, ApoA-I, ApoC-III, VLDL-C, hs CRP, and ApoB for individual patients at baseline and at 12 weeks post treatment with doses of 150, 300, 600, and 900 mg/day of gemcabene, or placebo.
Tables 1-7 provide the data expressed as average percent and mean percent decrease or increase, as appropriate, for each of these parameters at each of the doses tested.

[2] = tested on: patient with triglyceride level of 1030 mg/dl; test: Example 5: patient with triglyceride level of 1030 mg/dl treated with gemcabene; type: in vivo, human; conditions: 300 mg once per day plus low fat diet, 12-week follow-up, initial 1030 mg/dl
Protocol: A patient, as part of a routine annual examination, has blood tests which reveal that the patient has an LDL-C level of 200 mg/dl and a triglyceride level of 1030 mg/dl. This high triglyceride level places them at high risk for developing pancreatitis. According to the […] guidelines, the patient's treatment is initially targeted to address the high triglyceride level. The patient is administered gemcabene at a dose of 300 mg once per day and is placed on a low fat diet.

[3] = tested on: patients having triglyceride levels ≧200 mg/dL; conditions: data reported in Bays et al., cited from earlier work
CYP3A4 [4] = biological target: T1, CYP3A4 (Homo sapiens, UniProt P08684); conditions: cited from earlier work
CYP3A4 [5] = biological target: T1, CYP3A4; conditions: simvastatin (a CYP3A4 substrate); cited from earlier work

T1 sequence (P08684 whole entry): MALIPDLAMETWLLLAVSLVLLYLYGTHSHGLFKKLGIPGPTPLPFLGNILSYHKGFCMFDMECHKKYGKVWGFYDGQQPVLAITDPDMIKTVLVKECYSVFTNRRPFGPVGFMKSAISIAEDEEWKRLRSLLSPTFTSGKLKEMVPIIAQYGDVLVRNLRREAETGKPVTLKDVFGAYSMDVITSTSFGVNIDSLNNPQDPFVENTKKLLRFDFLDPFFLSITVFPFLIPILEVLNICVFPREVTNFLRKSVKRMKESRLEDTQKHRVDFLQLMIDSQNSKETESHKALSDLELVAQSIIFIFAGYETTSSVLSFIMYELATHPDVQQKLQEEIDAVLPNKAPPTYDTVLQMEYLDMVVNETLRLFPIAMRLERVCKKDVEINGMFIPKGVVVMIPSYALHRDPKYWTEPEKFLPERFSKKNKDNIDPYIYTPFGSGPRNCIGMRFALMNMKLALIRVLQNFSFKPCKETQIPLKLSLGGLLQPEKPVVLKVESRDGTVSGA

Structure (SMILES): CC(C)(CCCCOCCCCC(C)(C)C(=O)O)C(=O)O [Gemcabene, 6,6′-oxybis-(2,2′-dimethylhexanoic acid)]
- ApoA-I average % increase ([1]; 150 mg/day, 12 weeks): 9.27%
- ApoB average % decrease ([1]; 150 mg/day, 12 weeks): −16.15%
- ApoC-III average % decrease ([1]; 150 mg/day, 12 weeks): 36.95%
- HDL-C average % increase ([1]; 150 mg/day, 12 weeks): 32.59%
- VLDL-C average % decrease ([1]; 150 mg/day, 12 weeks): 48.50%
- hs-CRP average % decrease ([1]; 150 mg/day, 12 weeks): −4.02%
- Triglycerides average % decrease ([1]; 150 mg/day): 52.09%
- Triglycerides average % decrease ([1]; 150 mg/day, listed as gemcabene): 52%
- ApoA-I average % increase ([1]; 300 mg/day, 12 weeks): −6.17%
- ApoB average % decrease ([1]; 300 mg/day, 12 weeks): 1.25%
- ApoC-III average % decrease ([1]; 300 mg/day, 12 weeks): 49.41%
- HDL-C average % increase ([1]; 300 mg/day, 12 weeks): 11.69%
- VLDL-C average % decrease ([1]; 300 mg/day, 12 weeks): 51.86%
- hs-CRP average % decrease ([1]; 300 mg/day, 12 weeks): −429.19%
- Triglycerides average % decrease ([1]; 300 mg/day): 61.18%
- Triglycerides average % decrease ([1]; 300 mg/day, listed as gemcabene): 61%
- ApoA-I average % increase ([1]; 600 mg/day, 12 weeks): −3.31%
- ApoB average % decrease ([1]; 600 mg/day, 12 weeks): −3.70%
- ApoC-III average % decrease ([1]; 600 mg/day, 12 weeks): 30.89%
- HDL-C average % increase ([1]; 600 mg/day, 12 weeks): −4.02%
- VLDL-C average % decrease ([1]; 600 mg/day, 12 weeks): 28.73%
- hs-CRP average % decrease ([1]; 600 mg/day, 12 weeks): 33.50%
- Triglycerides average % decrease ([1]; 600 mg/day): 36.44%
- ApoA-I average % increase ([1]; 900 mg/day, 12 weeks): 0.47%
- ApoB average % decrease ([1]; 900 mg/day, 12 weeks): 2.26%
- ApoC-III average % decrease ([1]; 900 mg/day, 12 weeks): 20.36%
- HDL-C average % increase ([1]; 900 mg/day, 12 weeks): 1.03%
- VLDL-C average % decrease ([1]; 900 mg/day, 12 weeks): 17.10%
- hs-CRP average % decrease ([1]; 900 mg/day, 12 weeks): 66.64%
- Triglycerides average % decrease ([1]; 900 mg/day): 0.90%
- increase in HDL-C levels ([1]; one patient (FIG. 1), 150 mg/day, 12 weeks): 27%
- serum triglyceride level after treatment ([1]; one patient (FIG. 1), 150 mg/day, 12 weeks post-treatment, TG 550 mg/dL at initiation): 210 mg/dL
- fall in triglyceride level ([1]; one patient (FIG. 1), 150 mg/day, 12 weeks, TG 550 mg/dL at initiation): 62%
- triglyceride level at follow-up [2]: 363 mg/dL
- reduction in triglyceride levels ([3]; 150 mg dose): 26.6%
- reduction in triglyceride levels ([3]; 300 mg dose): 38.9%
- inhibition of CYP3A4 (CYP3A4 [4]): low level of inhibition
- effect in drug-drug interaction study with simvastatin (CYP3A4 [5]): no clinically relevant effect
